Results taken from US20090180958A1, “Diagnostic and therapeutic agents” (Karyon-CTT Ltd., priority 2005, published 2009).

Tests used:
[1] = test system: A549, NCI-H23, NCI-H520, NCI-H460, C8161/M1, HeLa, NIH3T3, E10V, SVEC4-10 cell lines; test: Cytotoxicity assay (MTT); format: cell-based; settings: 7.5 μg/ml, after 1 h treatment; positive control
Description: In this assay cell lines were exposed to two different concentrations (50 μg/and 500 μg/ml) of IS257 targeting unit (described in Example 3) for two to three days to test the toxicity of the peptides. The measurement of cell viability was done with MTT (Thiazolyl blue, Sigma M-5655 ) tetrazolium salt. MTT is cleaved to water-insoluble formazan dye by the “succinate-tetrazolium reductase” system which is active only in viable cells. After formazan was solubilized by 10% SDS-0.01 M HCl, it was quantified in an ELISA spectrometer (ThermoLabsystems Multiscan EX) at 560 nm. CuSAO2 [trans-bis(salicylaldoximato) copper(II)] (Elo HO, Lumme PO., 1985) 7.5 μg/ml was used as a positive control for 100% toxicity.
Procedure. Cells were trypsinized from the cell culture dish (ø9 cm) with 1 ml of TE for 1-5 minutes and moved to a 50 ml Falcon tube. […]
Then 40 μl of IS257 targeting unit in appropriate medium were added to the wells in two concentrations, so that final concentrations were 50 μg/ml and 500 μg/ml, and the volume of the wells was raised back to 100 μl. […] The next day the cell morphology was analyzed with a microscope. […]
The next day, the MTT assay described above was performed. The viable count (v.c.) was calculated as:
Average toxicated cell absorbance−Average DMEM absorbance=Viable count Average living cell absorbance−Average DMEM absorbance […]

human lung tumor tissue = settings: enriched peptide sequences collected from ex vivo panning rounds four to six
Excerpt: Phage display libraries. Standard procedures according to Smith and Scott (1993) were used. Phage display libraries used for screening of clinical samples were cloned in fUSE5 vectors and were of the structure X7 and X10, thus they were linear containing seven or ten random amino acids. The libraries were used separately or as a mixture. The E. coli strain K91kan was used as host for phage amplification.
Subtractional panning. Bio-panning was started with depletion of phage clones binding to normal lung. Normal lung tissue taken from surgical lung resection, removed during dissection of tumor, was placed in ice cold DMEM (Dulbecco's medium) containing protease inhibitors (PI); 10 mM PMSF ([…]), Aprotinin (10 mg/ml) Leupeptin (10 mg/ml). Tissue samples were minced with a razor blade in a small cell culture plate in 1 ml of DMEM-PI. The samples were transferred to an eppendorf tube and washed with 1 ml DMEM-PI.
Samples were centrifuged at 4000 rpm for 5 min and were then incubated with 10^10 transforming units (TU) of phage (from one or more peptide libraries) in 1 ml DMEM-PI at 25° C. for 45 min. After this the samples were washed three times with DMEM-PI containing 1% BSA (bovine serum albumin).
Phage display on clinical tumor samples. Tissue samples were surgically removed from primary tumors of non-small cell lung cancer patients and placed in ice DMEM-PI. Part of sample was taken for pathological examination. The type and nature of the tumor samples were first verified as being NSCLC. After that, specification of subtype of NSCLC and its stage was done by pathologists.
Tissue samples were minced with a razor blade in a small cell culture plate in 1 ml of DMEM containing protease inhibitors. The samples were transferred to an eppendorf tube and washed with 1 ml DMEM-PI.
Samples were centrifuged at 4000 rpm for 5 min and were then incubated with 10^10 TU of phage (from one or more peptide libraries) in iml DMEM-PI at 25° C. for 15 min. After this the samples were washed three times with DMEM-PI containing 1% BSA (bovine serum albumin).
1 ml K91kan bacteria, OD600: 1-1.5, in LB containing 100 μg/ml kanamycin (kan) were infected with the washed pellet containing selectively attached phage particles at 25° C. for 25 min. After infection volume was increased to 2 ml with LB containing 100 μg/ml kan.
Then infected bacteria were plated on LB agar plates containing 40 μg/ml tetracycline (tet) as follows: Two parallel plates of three dilutions (1:50, 1:500, 1:5000) and the rest of the above K91kan culture in 200 μl aliquots. The plates were incubated overnight at +37° C.
The following day 24-48 colonies were picked from the LBtet plates into 96-well micro-plates for sequencing of the phage DNA. Alternatively the clones were stored for later analysis at −20° C.
Monitoring of enrichment of peptides.

[2] = test system: NIH3T3, mouse fibroblast cell line; settings: wells coated at 30 μg/ml; 75000 cells, 30 minutes at 37° C.; control cell line NIH3T3
Description: (§1) Preparation of plates for assays. Wells of Reacti-Bind Maleimide activated clear strip plate (Pierce, Prod#. 15150) were coated with targeting agents of this invention at a concentration of 30 μg/ml. The incubation was carried out of overnight at 20° C. The binding buffer containing unbound peptide was removed from the wells.
(§2) The wells were blocked with blocking buffer (1.0% BSA, 0.05% Tween20 in phosphate buffer saline (PBS) pH 7.0. PBS was prepared as follows: […] of NaCl, 1 g of KCl, 7 g of Na2HPO4×2H2O and 1 g of KH2PO4 were dissolved to 1000 ml of deionized H2O). Blank wells as controls were prepared by treating empty wells with blocking buffer. The plates were incubated 1 hour 30 min at 20° C.
(§3) After incubation the plate was washed three times with PBS. Cell binding assays. 75000 cells in volume of 150 μl of medium were added into coated wells and were incubated for 30 minutes at 37° C. After cell binding, the wells were washed with PBS for 30 minutes. Detection of targeting agent bound cells were based on the MTT assay (described in detail in Example 23, Cytotoxicity). 10 μl of MTT reagent and 90 μl of medium were added to the wells. The plate was incubated for three hours at +37° C. After the incubation, 100 μl of lysis buffer was added to the wells and let to incubated o/n 37° C. On following day the absorbance of plate was measured at 560 nm with ELISA-reader (ThermoLabsystems, multiskan EX).
(§4) Cell lines NCI-H23, NCI-H520, A549, HeLa and NIH3T3 (described in Example 18) and targeting agents HP199, HP201 and HP205 (described in Examples 5, 6, 17) were used in the cell binding.
(§5) The results are shown as measured absorbance at 560 nm.

NSCLC cell line A549 = settings: wells coated at 30 μg/ml, 75000 cells, 30 minutes at 37° C.
Description: as §1, §2, §3, §4, §5

NSCLC cell line NCI-H23 = settings: wells coated at 30 μg/ml, 75000 cells, 30 minutes at 37° C.
Description: as §1, §2, §3, §4, §5

NSCLC cell line NCI-H520 = settings: wells coated at 30 μg/ml, 75000 cells, 30 minutes at 37° C.
Description: as §1, §2, §3, §4, §5

[3] = test system: PASMC, human primary pulmonary artery smooth muscle cell line; settings: wells coated at 30 μg/ml; 75000 cells, 30 minutes at 37° C.; control cell line PASMC
Description: as §1, §2, §3, §4, §5

A549 cells = test: Fluorescent targeting agent staining of fixed cells; format: cell-based, human; settings: 50 μg/ml in PBS, pH 7.4; methanol-fixed A549 cells
Description: (§8) A549 cells and HeLa cells (described in Example 18) were grown on glass slides, washed with PBS and then fixed with methanol. The fluorescent targeting agent F5M-A49 (described in Example 10) was used to stain these cells as follows: Cells were first blocked with blocking buffer (1.0% BSA, 0.05% Tween20 in PBS, pH 7.4) for one hour at 20° C. The cells on the glass slides were incubated with 20 μl of F5M-A49 targeting agent (50 μg/ml in PBS, pH 7.4). As control, binding of F5M-A49 was competed with 20 μl of IS257 targeting unit (free peptide described in Example 3), 500 μg/ml in PBS, pH 7.4) prior to addition of the targeting agent. As negative controls, cells not incubated with any targeting agent were used. After the staining the cells were mounted on object glasses with mountex (Histolab Products Ltd). After this cells were viewed under a fluorescent microscope (Carl Zeiss Microscopy, Jena, Germany).

HeLa cells = settings: 50 μg/ml in PBS, pH 7.4; methanol-fixed HeLa cells
Description: as §8

HeLa = settings: 5 pM, 30 min at 37° C.; control cell line HeLa
Description: (§6) 5000 cells, A549, NCI-H23, NCI-H520, NCI-H460, and control cells PASMC and HeLa (described in Example 18), are grown in multi-well plates, according to the conditions described in Example 18.
(§7) After 30 min of incubation cells are washed 5 times with PBS. PBS is removed and cells are lysed by shaking in Inducer Solution (Perkin-Elmer Ltd) for 15 min. After this, fluorescence is measured by time resolved fluorescence using a Victor III fluorometer (Perkin-Elmer Ltd).

PASMC = settings: 5 pM, 30 min at 37° C.; control cell line PASMC
Description: as §6, §7

[Cu+2].[O-]c1ccccc1C=NO.[O-]c1ccccc1C=NO [CuSAO2, trans-bis(salicylaldoximato) copper(II), reference compound]
cell killing [1]: 100%

ARAPGVMPTT
Frequency (human lung tumor tissue): 2

ARLPQVELSA
Frequency (human lung tumor tissue): 3

ARMPPRS
Frequency (human lung tumor tissue): 2

ARPPKGVNWT
Frequency (human lung tumor tissue): 3

ARRPKLD [Ala-Arg-Arg-Pro-Lys-Leu-Asp]
Frequency (human lung tumor tissue): 22

Ac-ARRPKLD-GAAG-PEG-G3-EAT [HP201]
binding of cells to immobilized targeting agent (absorbance at 560 nm) [2]: do not
binding of cells to immobilized targeting agent (absorbance at 560 nm) (NSCLC cell line A549): bind selectively
binding of cells to immobilized targeting agent (absorbance at 560 nm) (NSCLC cell line NCI-H23): bind selectively
binding of cells to immobilized targeting agent (absorbance at 560 nm) (NSCLC cell line NCI-H520): bind selectively
binding of cells to immobilized targeting agent (absorbance at 560 nm) [3]: do not

Ala-Asp-Gly-Ala-Ala-Arg-Arg-Pro-Lys-Leu-Asp-Gly-Ala-Ala-Gly-NH—CH2CH2—O—CH2CH2—O—CH2CH2—O—CH2—C(O)-Gly-Gly-Gly-NHCH2CH2SH [HP199]
binding of cells to immobilized targeting agent (absorbance at 560 nm) [2]: do not
binding of cells to immobilized targeting agent (absorbance at 560 nm) (NSCLC cell line A549): bind selectively
binding of cells to immobilized targeting agent (absorbance at 560 nm) (NSCLC cell line NCI-H23): bind selectively
binding of cells to immobilized targeting agent (absorbance at 560 nm) (NSCLC cell line NCI-H520): bind selectively
binding of cells to immobilized targeting agent (absorbance at 560 nm) [3]: do not

CH3C(O)-Ala-Arg-Arg-Pro-Lys-Leu-Asp-Gly-Ala-Ala-Gly-NH—(CH2)3—(O—CH2CH2)3—CH2—NH—C(O)CH2CH2—C(O)—NHCH2CH2S—C2H3(COOH)—C(O)—NH—(C20H11O5) [F5M-A49]
staining of cells (fluorescent microscope) (A549 cells): strong staining
staining of cells (fluorescent microscope) (HeLa cells): no staining

CH3C(O)-Ala-Arg-Arg-Pro-Lys-Leu-Asp-Gly-Ala-NHCH2CH2S-p-CH2CONH-benzyl-DTPA europium chelate [A48-Eu]
binding of targeting agent to cells (HeLa): no binding
binding of targeting agent to cells (PASMC): no binding

H-Ala-Asp-Gly-Ala-asp-Pro-Leu-Lys-Arg-Ala-Arg-Gly-Ala-Ala-Gly-NH-CH2CH2—O—CH2CH2—O—CH2CH2—O—CH2—C(O)-Gly3-NHCH2CH2SH [HP205, reference compound]
binding of cells to immobilized targeting agent (absorbance at 560 nm) (NSCLC cell line A549): do not bind
binding of cells to immobilized targeting agent (absorbance at 560 nm) (NSCLC cell line NCI-H23): do not bind
binding of cells to immobilized targeting agent (absorbance at 560 nm) (NSCLC cell line NCI-H520): do not bind

SRAPNSVQHD
Frequency (human lung tumor tissue): 2

SRAPVAP
Frequency (human lung tumor tissue): 2

SRLPSAGTFQ
Frequency (human lung tumor tissue): 2

SRNPGLLTVR
Frequency (human lung tumor tissue): 2
